One series has as its system LAPC4 AKR1C3 cells. Nature of the series: Testosterone ELISA after androstenedione stimulation. The class given is cell-based. The settings on record: Homo sapiens, 28 nM androstenedione, 24 h, read-out: Inhibition of testosterone levels. How it is done: (§1) Cells were seeded into 96-well plates in hormone-deprived media at appropriate seeding densities [10,000–50,000 cells per well for all lines except HCC1500 (100,000 cells per well; 11β-PGF2α ELISA)] to reach approximately 70% confluency at the time of sampling and were left to settle for 24 h at 37°C and 5% CO2. Inhibitors were added to the plates at single or multiple concentrations for 1 h prior to administration of equimolar (28 nM) concentrations of PGD2 (11β-PGF2α ELISA), androstenedione (testosterone ELISA), or estrone (17β-estradiol ELISA). […] Each ELISA plate was read at a wavelength of 405 nm (11β-PGF2α and testosterone) or 650 nM (17β-estradiol) on a SpectraMax M2 microplate reader (Molecular Devices) and quantitated against a standard curve generated in hormone-deprived culture media. […]
(§2) Since AKR1C3 has been implicated in the development of CRPC because of its ability to produce testosterone intratumorally from circulating androstenedione, we determined testosterone concentrations in the prostate cancer cell lines and known high and low AKR1C3-expressing cells after stimulation with androstenedione for 24 h. […]

Another series relates to LAPC4 wild-type cells. In words: Cell proliferation (sulforhodamine B), 5 days. Type of series: cell-based, human. The settings on record: 10 μM. How it is done: (§3) Cells were seeded into 96-well plates in hormone-deprived media at appropriate seeding densities (5000–20,000 cells per well) to reach approximately 70% confluency at the time of sampling and left to settle for 48 h at 37°C and 5% CO2. […] The plates were returned to the incubator for 5 days before fixing in 10% trichloroacetic acid (Merck Millipore) at 4°C for 1 h and staining with 0.4% sulforhodamine B (Sigma-Aldrich) in 1% acetic acid for 30 min in the dark at room temperature. Plates were washed in 1% acetic acid, dried, and incubated with unbuffered Tris base (10 mM; Serva) for 30 min on a plate shaker in the dark to solubilize the stain. The plates were read on a BioTek EL808 microplate reader at an absorbance of 490 nm with a reference wavelength of 450 nm.
(§4) Finally, we investigated whether inhibiting AKR1C3-dependent testosterone or 17β-estradiol production could prevent androstenedione- or estrone-stimulated cell proliferation in CRPC or ER-positive breast cancer cells.

For series [1], the system named is 22RV1 cells. In words: Cell proliferation (sulforhodamine B), 5 days. The class given is cell-based, human. To be noted: 10 μM. On the procedure: as §3, §4
For a further series, the system named is HCT116 AKR1C3 cells. Nature of the series: Testosterone ELISA after androstenedione stimulation. The class given is cell-based, human. To be noted: Homo sapiens, HCT-116; for inhibition at 10 µM: read-out: Inhibition of testosterone levels. How it is done:
(§5) Cells were seeded into 96-well plates in hormone-deprived media at appropriate seeding densities [10,000–50,000 cells per well for all lines except HCC1500 (100,000 cells per well; 11β-PGF2α ELISA)] to reach approximately 70% confluency at the time of sampling and were left to settle for 24 h at 37°C and 5% CO2. Inhibitors were added to the plates at single or multiple concentrations for 1 h prior to administration of equimolar (28 nM) concentrations of PGD2 (11β-PGF2α ELISA), androstenedione (testosterone ELISA), or estrone (17β-estradiol ELISA). The plates were returned to the incubator for a further 24 h before cell supernatant was removed for analysis of 11β-PGF2α, testosterone, or 17β-estradiol by ELISA as per manufacturer’s instructions (11β-PGF2α and testosterone ELISA, Cayman Chemical Company; 17β-estradiol ELISA, Oxford Biomedical Research), and cells were fixed for sulforhodamine B analysis as described below. Each ELISA plate was read at a wavelength of 405 nm (11β-PGF2α and testosterone) or 650 nM (17β-estradiol) on a SpectraMax M2 microplate reader (Molecular Devices) and quantitated against a standard curve generated in hormone-deprived culture media. Cross-reactivity to PGD2, androstenedione, or estrone was accounted for by adding these to cell-free wells of each ELISA plate.
(§6) Since AKR1C3 has been implicated in the development of CRPC because of its ability to produce testosterone intratumorally from circulating androstenedione, we determined testosterone concentrations in the prostate cancer cell lines and known high and low AKR1C3-expressing cells after stimulation with androstenedione for 24 h.
(In an ELISA, binding on a coated surface is turned into a signal by an enzyme label.)

The subject of series [2] is NCI-H460 cells. Described as above. The class given is cell-based, human. To be noted: Homo sapiens, NCI-H460; 10 μM; 28 nM androstenedione, 24 h; read-out: Inhibition of testosterone levels. How it is done:
as §5, §6

Series [3] has as its system NCI-H460 cells. In words: 17β-estradiol ELISA after estrone stimulation. The settings on record: Homo sapiens, 28 nM estrone, 24 h, read-out: Inhibition of 17β-estradiol formation. Type of series: cell-based. How it is done: as §5, with “plate. […]” for “plate.”
Another series concerns LNCaP cells. Nature of the series: Testosterone ELISA after androstenedione stimulation. The class given is cell-based, human. The settings on record: 10 μM; 28 nM androstenedione, 24 h; P < 0.05. How it is done:
as §1, §2

A further series concerns other AKR1C isoforms. Nature of the series: Inhibition of isolated AKR1C enzymes. The class given is biochemical. To be noted: 10 μM; unpublished data.
For series [4], the system named is 22RV1 cells. In words: Testosterone ELISA after androstenedione stimulation. The class given is cell-based, human. On the procedure: as §5, with “Inhibitors were added to the plates at single or multiple concentrations for 1 h prior to administration of equimolar (28 nM) concentrations of PGD2 (11β-PGF2α ELISA), androstenedione (testosterone ELISA), or estrone (17β-estradiol ELISA). The plates were returned to the incubator for a further 24 h before cell supernatant was” left out
as §6

Another series concerns all cell lines. Nature of the series: Unstimulated cell proliferation (sulforhodamine B), 5 days, all cell lines. Type of series: cell-based, human. The settings on record: 10 μM, all cell lines except MCF7. How it is done:
as §3, §4

The next series deals with AKR1C3. More on the design: method as in PMID 23454516. To be noted: cited from earlier work.
Another series has as its system T47D AKR1C3 cells. In words: Cell proliferation (sulforhodamine B), 5 days. The class given is cell-based, human. To be noted: 10 μM, estrone up to 10 nM. How it is done:
as §3
(§7) Neither androstenedione nor estrone-stimulated cell proliferation in the HCT116 AKR1C3 and wild-type cell lines (data not shown).

The subject of the next series is T47D cells. In words: Cell proliferation (sulforhodamine B), 5 days. The settings on record: 10 μM, estrone up to 10 nM. Type of series: cell-based, human. How it is done: as §3, §7

In general, inhibition refers to the relative decrease from the control value, in per cent. The EC50 is the concentration at which the effect is half-maximal.

SMILES strings stand for the structures. Like-named read-outs stand apart in the source and are kept apart here. Where only a bound is given, the exact number is not on record here.

Turning to `CC1CCCCN1S(=O)(=O)c1ccc(N2CCCC2=O)cc1` (stereo not shown) [SN33638], the inhibition at 10 µM worked out at 96.8% in the series with LAPC4 AKR1C3 cells; 73.7% in the series on HCT116 AKR1C3 cells (10 μM alone, Figure 4D); 74.2% in the series on HCT116 AKR1C3 cells (10 μM, 28 nM androstenedione, 24 h, Figure 4B); 54.1% in the series on NCI-H460 cells [2]; 39.6% with NCI-H460 cells [3]; 50.8% in the series on 22RV1 cells [4] (Homo sapiens, 22Rv1, 10 μM, 28 nM androstenedione, 24 h, read-out: Inhibition of testosterone levels). Further, the “Effect on androstenedione-stimulated cell proliferation” value with LAPC4 wild-type cells and in the series with 22RV1 cells [1] was “no effect” each time. The EC50 in the series on HCT116 AKR1C3 cells (HCT116 AKR1C3 cells, 28 nM androstenedione, 24 h, read-out: EC50 of inhibition of testosterone production) was 7.4 ± 1.2 nM. In addition, the “Effect on testosterone levels” value with LNCaP cells is “significantly increased”; in the series on 22RV1 cells [4] (5 days after stimulation with up to 10 nM androstenedione, data not shown) it was “no inhibitory effect”. Besides, the “Inhibition against each isolated enzyme (other AKR1C isoforms)” value in the series with other AKR1C isoforms was < 14%. The “Effect on unstimulated cell proliferation” value in the series on all cell lines was “no effect”. Besides, the “Potency against AKR1C3” value in the series with AKR1C3 is listed as “low nanomolar”. For the same molecule, the “Effect on estrone-stimulated cell proliferation” value in the series on T47D AKR1C3 cells and in the series on T47D cells was “not significantly inhibited” throughout.

Values taken from publication PMC4061482 (Frontiers in Oncology, 2014).
